The subject of the assay is 777334-354-R2-J4-PDC tumor spheroids with HUVEC/MSC, viability. Nature of the assay: Anticancer human tumor 777334-354-R2-J4-PDC patient-derived pancreatic adenocarcinoma cell line growth inhibition [GQUAD]. As to conditions: for viability, T/C: stronger effect = lower value. The text has this:
DNA G-quadruplex Stabilizer Agents in Combinations in Complex Spheroids
A high-throughput screen of multi-cell type tumor spheroids was designed to identify active combinations of DNA G-quadruplex stabilizer agents and targeted small molecules. Complex spheroids include a stromal component modeled by human endothelial cells (HUVEC) and fibroblasts modeled by human mesenchymal stem cells (MSCs). The concentration ranges selected for each drug and investigational agent were based upon clinically achievable concentrations if the clinical Cmax of the agent was known.
Compounds. The drugs and investigational agents: pidnarulex (CX-5461; NSC782164), APTO-253 (NSC789042), BRACO-19 (NSC847499), peposertib (NSC802822), ceralasertib (NSC780249), elimusertib (NSC800525), camonsertib (NSC841442), AZD-1390 (NSC803789), olaparib (NSC753686), talazoparib (NSC767125), ART-558 (NSC835418), sotorasib (NSC818433), MRTX-1133 (NSC836407), SN-38 (NSC673596), topotecan (NSC609699), etoposide (NSC141540), doxorubicin (NSC123127), gemcitabine (NSC613327), 5-fluorouracil (NSC19893), paclitaxel (NSC125973), vemurafenib (NSC761431), panobinostat (NSC761190), R-306465 (JNJ-16241199; NSC773264), adavosertib (NSC754352), TP-3654 (NSC805149), carboplatin (NSC241240), KSQ-4279 (NSC840948), and staurosporine (NSC755774) were obtained from the National Cancer Institute (NCI) Developmental Therapeutics Program Chemical Repository (34). The FDA-approved anticancer drug set is available from the NCI Developmental Therapeutics Program. […] The stock solutions were prepared in dimethyl sulfoxide (DMSO, Sigma-Aldrich, St. Louis, MO, cat. D2650) at 800-fold the tested concentration and stored at -70 degrees C prior to their use. All drugs and investigational agents were tested over a range starting from a high concentration at or near the clinical Cmax and decreasing in half-log increments. If the clinical Cmax for an agent had not been determined, the highest concentration tested was 10 microM.
2.3 Cell Culture. All cells were maintained in an incubator at 37 degrees C and 5% CO2 with 95% humidity. The PDC lines were cultured according to standard operating procedures established by the NCI PDMR. All PDCs were thawed and cultured in Matrigel-coated flasks prepared with a working solution of 1X Ham's F-12 nutrient mix, without supplementation (Invitrogen, cat. 11765054), 100 U/mL penicillin-streptomycin (Invitrogen, cat. 15140122), and 2.5% Matrigel (Corning Inc., cat. 354248) for the first three passages. The 857933-349-R-J2-PDC line was cultured in 6C/Colon 1B media, which includes advanced DMEM/F-12 (Thermo Fisher Scientific, cat. 12634028), 10 mM HEPES (Thermo Fisher Scientific, cat. 15630080), 1X GlutaMAX supplement (Thermo Fisher Scientific, cat. 35050061), 0.1 mg/mL primocin (InvivoGen, cat. ant-pm-2), 10% defined fetal bovine serum, heat inactivated (HyClone Laboratories Inc., cat. SH30070.03HI), 50% L-WRN conditioned media (ATCC, cat. CRL-3276), 1.25 mM N-Acetyl-L-cysteine (Sigma-Aldrich, cat. A9165), 10 mM nicotinamide (Sigma-Aldrich, cat. N0636), 1X B-27 supplement (Thermo Fisher Scientific, cat. 17504044), 1X N-2 supplement (Thermo Fisher Scientific, cat. 17502048), 10 microM Y-27632 dihydrochloride (Tocris Bioscience, cat. 1254), and 50 ng/mL human EGF recombinant protein (Thermo Fisher Scientific, cat. PHG0311). The 485176-168-R4-J1-PDC line was cultured in Panc media, which includes all 6C/Colon 1B media components plus 100 ng/mL human FGF-10 (Thermo Fisher Scientific, cat. 100-26), 500 nM SB-431542 (Selleckchem, cat. S1067), and gastrin (Tocris, cat. 3006).
[…]

[1] abbreviates: compound alone, run of 03/18/2024.

pIC50: −log10 of the molar value. “And” between values parts separate entries of the source, which are not always exact repeats. Equal entries are not always repeated.
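Further: spheroids exposed to compounds for 7 days before readout.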

Regarding `COc1ccc([C@@H](O)c2cc(-c3ncnc4cc(N5CCOCC5)ccc34)c(F)cc2Cl)nn1`, the viability, T/C (usually the ratio of treated to control) is 88.9% and 85.9% and 100% (compound 0.0316 µM); 90.6% and 89.8% and 104% (compound 0.1 µM); 94.2% and 88.9% and 91.9% (compound 0.316 µM); 76.1% and 72.6% and 86.3% (compound 1 µM); 55.1% and 55.7% and 51.5% (compound 3.16 µM); 30.2% and 26.8% and 30.7% (compound 10 µM). For the setting “curve of compound”, the pIC50 (commonly the IC50 on a negative log10 scale, so that one unit is a factor of ten) was 5.41 and 5.42 and 5.44.
Turning to `COc1cccc2c1C(=O)c1c(O)c3c(c(O)c1C2=O)CC(O)(C(=O)CO)CC3OC1CC(N)C(O)C(C)O1` (centres undefined), the viability, T/C runs as follows: (compound 0.0316 µM) 95.8% and 98.8% and 102%; (compound 0.1 µM) 86.7% and 89.4% and 89.9%; (compound 0.316 µM) 69% and 68.8% and 73.9%; (compound 1 µM) 42% and 47.4% and 37.8%; (compound 3.16 µM) 22.2% and 23.6% and 27.6%; (compound 10 µM) 12.6% and 13% and 11.9%. Further, the pIC50 (curve of compound) was 6.15 and 6.09 and 6.13.
As to `Cc1[nH]c2ccc(F)cc2c1-c1nc2c3cccnc3c3ncccc3c2[nH]1`, the viability, T/C was 101% [middle of 12 runs] (compound 0.0316 µM); 98% [middle of 12 runs] (compound 0.1 µM); 97.4% [middle of 11 runs] (compound 0.316 µM); 86.4% [middle of 12 runs] (compound 1 µM); 43.9% [middle of 12 runs] (compound 3.16 µM). Further, the IC50 (commonly the midpoint of a concentration-inhibition curve) under setting [1] is 2.51 µM [middle of 7 runs].
Take `Cc1[nH]c2ccccc2c1CCNCc1ccc(/C=C/C(=O)NO)cc1`: the viability, T/C runs as follows: (compound 0.000999 µM) 99% and 100% (2×); (compound 0.00316 µM) 91.5% and 99.1% and 97.5%; (compound 0.00999 µM) 106% and 114% and 102%; (compound 0.0316 µM) 93.5% and 98.6% and 91.6%; (compound 0.0999 µM) 72.8% and 72.4% and 75%; (compound 0.316 µM) 32.1% and 29.1% and 35.9%. The pIC50 (curve of compound) was 6.72 and 6.74 and 6.68.
With `Cc1cccc(N(C)C(=O)C2C(O)CCN2c2nc(C)cc(C(F)(F)F)c2C#N)c1` (centres undefined), the viability, T/C (compound 0.0316 µM) was 102% (2×) and 107%; the viability, T/C (compound 0.1 µM) is 108% and 104% and 87.8%; the viability, T/C (compound 0.316 µM) was 99.9% and 101% and 98.9%; the viability, T/C (compound 1 µM) was 87.3% and 100% and 95%; the viability, T/C (compound 3.16 µM) was 92.4% and 93.6% and 109%; the viability, T/C (compound 10 µM) is 96.5% and 85.7% and 94.7%. Moreover, the negative-log IC50 (pIC50) (curve of compound) is under 5.00.
In the case of `Cc1cnc(CNC(=O)c2c(=O)c3ccc(N4CCCN(C)CC4)nc3n3c2sc2ccccc23)cn1`, the viability, T/C (compound 0.0316 µM) is 95.7% [middle of 12 runs]; the viability, T/C (compound 0.1 µM) is 88.5% [middle of 12 runs]; the viability, T/C (compound 0.316 µM) was 85.2% [middle of 12 runs]; the viability, T/C (compound 1 µM) was 76% [middle of 12 runs]; the viability, T/C (compound 3.16 µM) is 68.6% [middle of 12 runs]; the viability, T/C (compound 10 µM) is 54.9% [middle of 12 runs]. Also, the pIC50 under setting [1] was < 5.00 and 5.13.
As to `Cn1ncnc1[C@H]1c2n[nH]c(=O)c3cc(F)cc(c23)N[C@@H]1c1ccc(F)cc1`, the viability, T/C is, setting by setting: (compound 0.000999 µM) 95.4% and 87.7% and 92.6%; (compound 0.00316 µM) 103% and 99.5% and 94.9%; (compound 0.00999 µM) 99% and 100% and 110%; (compound 0.0316 µM) 87.2% and 95.5% and 87.8%; (compound 0.0999 µM) 87.4% and 104% and 112%; (compound 0.316 µM) 97.3% and 83.1% and 102%. In addition, where the note is “curve of compound”, the pIC50 was under 6.50.
`Nc1ccn(C2OC(CO)C(O)C2(F)F)c(=O)n1` (centres undefined): the viability, T/C runs as follows: (compound 0.0316 µM) 91.5% and 76.4% and 76.8%; (compound 0.1 µM) 73% and 69.4% and 80%; (compound 0.316 µM) 64.9% and 57.5% and 76.6%; (compound 1 µM) 51.7% and 46.7% and 49.9%; (compound 3.16 µM) 41.5% and 36.5% and 39.1%; (compound 10 µM) 32.9% and 28.9% and 31.4%. The pIC50 (curve of compound) was 5.92 and 6.15 and 5.98.
On to `O=C(c1cc(Cc2n[nH]c(=O)c3ccccc23)ccc1F)N1CCN(C(=O)C2CC2)CC1`, for which the viability, T/C was 92.5% and 109% and 99% (compound 0.0316 µM); 111% and 84% and 105% (compound 0.1 µM); 96.9% and 103% and 102% (compound 0.316 µM); 84.4% and 89.3% and 94.1% (compound 1 µM); 88.8% and 76.5% and 101% (compound 3.16 µM); 77.2% and 75.9% and 79.5% (compound 10 µM). In addition, the pIC50 (curve of compound) is under 5.00.
Regarding `O=c1[nH]cc(F)c(=O)[nH]1`, the viability, T/C was 103% (2×) and 96.5% (compound 0.0316 µM); 103% and 97.9% and 98.6% (compound 0.1 µM); 104% and 107% and 115% (compound 0.316 µM); 75.3% and 73.9% and 78% (compound 1 µM); 69.9% and 72.7% and 71.7% (compound 3.16 µM); 63.2% and 65.2% and 59.8% (compound 10 µM). The negative-log IC50 (pIC50) (curve of compound) is under 5.00.

Source of the values: PubChem BioAssay AID2060499 (Molecular Pharmacology Branch, DTP, NCI, 2025).
